Experiments:
[1] = tested on: cytoplasmic Ca2+; assay: Calcium imaging of Ng-inoculated polarized epithelial cells (FluoForte, Fluo-4); type: cell-based, human; details: MS11Opa+ and MS11ΔOpa-inoculated polarized epithelial cells, 4 h; 2APB 10 μM, BAPTA 50 μM
Text: Ng inoculation induces Ca^2+-dependent redistribution of active NMII in polarized epithelial cells. A major upstream signaling molecule of MLCK is calmodulin that is activated by Ca^2+. To investigate if Ca^2+ is involved in Ng induced redistribution of active NMII, we determined if Ng inoculation would induce Ca^2+ flux in polarized epithelial cells. We used two Ca^2+ indicators, FluoForte (FIGS. 7A and 7B) and Fluo-4 (FIG. 11) to determine the cytoplasmic Ca^2+ level. Polarized T84 (FIGS. 7A and 7B, and FIG. 11A and FIG. 11B) and HEC-1-B (FIG. 11C and FIG. 11D) were incubated apically with MS11Opa+ or MS11ΔOpa for 4 h. The cells were then loaded with the fluorescent Ca^2+ indicator, and the cell membrane marked by the membrane dye CellMask. Cells were imaged using 3D-CFM (FIG. 7A, and FIGS. 11A and 11C). The mean fluorescence intensity (MFI) of the Ca^2+ dyes in individual cells was measured to estimate the cytoplasmic level of Ca^2+ (FIG. 7B, and FIGS. 11B and 11D). […]
Calcium imaging. […] To quantify the intracellular Ca^2+ level, the cytoplasmic region of individual cells was manually selected based on the CellMask staining in randomly acquired confocal images, and the mean fluorescent intensity (MFI) of Fluoforte and Fluo-4 in the cytoplasmic region was measured using the NIH ImageJ software.

[2] = tested on: ZO1; assay: ZO1 distribution and cell morphology in Ng-infected human endocervical tissue explants; type: cell-based; details: MS11ΔOpa 24 h, ML-7 10 μM
Text: We determined if MS11ΔOpa can induce the disruption of the apical junction in human endocervical tissue. Sections of uninfected and infected tissue explants were stained for the junctional protein ZO1, Ng, and DNA and analyzed by 3D-CFM (FIG. 4G). We quantified junction disruption by determining the percentage of Ng associated epithelial cells that lost continuous apical staining of ZO1, using 3D reconstituted confocal images (FIG. 4G, right panels). […] In contrast to the recruitment of ZO1 to epithelial cells neighboring exfoliating cells in uninfected monolayers, no accumulation of ZO1 staining was observed around Ng infected exfoliating cells (FIG. 4I, arrows). […] Treatment with the MLCK inhibitor ML-7 restored both the morphology (FIG. 4G left panels) and apical distribution of ZO1 (FIG. 4H).
(§1) Immunofluorescence analysis of human endocervical tissue explants. […] The tissue was fixed, embedded in gelatin, cryopreserved, sectioned crossing the apical and basolateral surfaces of the epithelium, stained for ZO1 (BD Bioscience), pMLC (Cell Signaling Technology, Beverly, Mass.), and Ng (51) by specific antibodies, and nuclei by DAPI (Life Technologies, Carlsbad, Calif.), and analyzed using CFM (Zeiss LSM 710, Carl Zeiss Microscopy LLC, Oberkochen, Germany). […]

[3] = tested on: human endocervical tissue explants; assay: Ng-induced epithelial exfoliation of human endocervical tissue explants (3D-CFM); type: cell-based; details: MS11ΔOpa, 24 h; ML-7 10 μM, PIK 100 μM
Description: (§2) Human endocervical tissue explants. The tissue explants were cultured as previously described. Endocervical tissues were obtained from patients undergoing voluntary hysterectomies and received within 24 h post-surgery. Samples were cut into ˜2.5 cm (L)×0.6 cm (W)×0.3 cm (H) pieces, incubated in CMRL-1066 (GIBCO, Gaithersburg, Md.) plus antibiotics for 24 h, and then switched to antibiotic-free media for 24 h.
as §1
(§3) To quantify epithelial exfoliation, the number of Ng associated cells localized on the top of the epithelial monolayer (exfoliated) and the total number of Ng associated epithelial cells was counted by visual inspection in each randomly acquired image, to determine the percentage of exfoliated cells. […] To quantify the redistribution of pMLC, the fluorescence intensity ratios (FIR) of pMLC staining at the apical to lateral in individual epithelial cells were determined using average FI as previously described.

[4] = tested on: Neisseria gonorrhoeae MS11ΔOpa; assay: Ng subepithelial penetration in human endocervical tissue explants (3D-CFM); type: cell-based; details: MS11ΔOpa, 24 h; ML-7 10 μM or PIK 100 μM; 27% without inhibitor
Description: as §2
Immunofluorescence analysis of human endocervical tissue explants. Individual endocervical tissue pieces were incubated with Ng at a MOI of ˜10 (based on the average number of endocervical epithelial cells in endocervical tissue pieces) in the presence or absence of the MLCK inhibitor ML-7 (10 μM, EMD Millipore) and PIK (100 μM) (54) on transwells for 24 h. Unassociated Ng were removed by extensive washes at 6 and 12 h. The tissue was fixed, embedded in gelatin, cryopreserved, sectioned crossing the apical and basolateral surfaces of the epithelium, stained for ZO1 (BD Bioscience), pMLC (Cell Signaling Technology, Beverly, Mass.), and Ng (51) by specific antibodies, and nuclei by DAPI (Life Technologies, Carlsbad, Calif.), and analyzed using CFM (Zeiss LSM 710, Carl Zeiss Microscopy LLC, Oberkochen, Germany). […]
as §3, with “cells. To estimate the level of Ng penetration into the subepithelium, the number of non-exfoliated epithelial cells (in clearly visible epithelial monolayers) with basal Ng staining and the total number of Ng associated epithelial cells were visually counted to calculate the percentage of infected epithelial cells with Ng penetration into the basolateral side.” for “cells.”

Row | Structure (SMILES) | MFI of the Ca2+ indicators (cytoplasmic Ca2+ level) [1] | apical distribution of ZO1 [2] | morphology of endocervical epithelial cells [2] | epithelial exfoliation of human endocervical tissue explants [3] | percentage of epithelial cells with basally associated Ng [4] [%]
1 | NCCOB(c1ccccc1)c1ccccc1 [2APB] | back to the basal level |  |  |  | 
2 | O=S(=O)(c1cccc2c(I)cccc12)N1CCCNCC1 [ML-7] |  | restored | restored | decreased the epithelial exfoliation of human endocervical tissue explants to the basal level | 7.1

Source: US10660933B2, “Compositions and methods for inhibition of bacterial infections in human endocervix” (priority 2015, dated 2020)
